Consider nine compounds from patent US7326727B2, “Furanthiazole derivatives as heparanase inhibitors” (Oxford Glycosciences (UK) Ltd., priority 2002, dated 2008).

For one assay, the system named is human endothelial cells. The experiment in a line: Angiogenesis assay (AngioKit, tubule formation by PECAM-1 staining). Format: cell-based. As to conditions: Endothelial cell, 264 h, AngioKit co-culture, tubule formation on day 11, PECAM-1 staining relative to untreated control. From the text: Angiogenesis Assay: A commercial angiogenesis assay for analysing the angiogenic or anti-angiogenic properties of test compounds (AngioKit catalogue no. ZHA-1000, TCS CellWorks Ltd, Buckingham, U.K) was used. In this assay, human endothelial cells were co-cultured with other human cells in a specifically designed medium. The endothelial cells initially form small islands within the culture matrix. They subsequently proliferate and then enter a migratory phase during which they move through the matrix to form threadlike tubule structures. These gradually join up (by 12-14 days) to form networks of […] tubules which closely resemble a capillary bed structure. These tubules stain positive for von Willebrand's Factor, Platelet Endothelial Cell Adhesion Molecule-1 (PECAM-1 or CD31) and Intercellular Adhesion Molecule-2 (ICAM-2).
The assay is supplied as growing cultures at the earliest stage of tubule formation in a 24 well plate format. It is designed so that test compounds and conditioned media can be added to the cultures within individual wells. The resulting effect on tubule formation can then be monitored. Positive and negative test agents are provided in the kit, e.g. Vascular Endothelial Growth Factor (VEGF) and sumarin. All reagents were included as part of the kit and the assay was performed according to the protocol supplied by TCS CellWorks Ltd. Briefly, on day 1, fresh growth medium, medium plus control agent or medium plus test compound was added to the cells and the cultures were incubated at 37° C., 5% CO2. […] The specified medium was changed at days 4, 7 and 9 and the cells were monitored for growth. On day 11, the cells were washed with Dulbecco's Phosphate-Buffered Saline (PBS) and fixed using 70% ethanol (−20° C.) for 30 min at room temperature. After fixing, the cells were washed and treated with blocking buffer, 1% BSA in PBS. The cells were stained for PECAM-1 on the same day, following standard immunohistochemistry procedures well known to those skilled in the art, using mouse anti-human CD31 as the primary antibody and a goat anti-mouse IgG alkaline […] conjugate. Tubule formation was quantitatively assessed by measuring PECAM-1 positive staining using the image analysis program “Matrox inspector” to evaluate the percentage tubule staining relative to an untreated control.
For the compound `O=C(O)Cc1nc(-c2ccc(-c3ccc(NC(=O)c4ccc(OC(F)(F)F)cc4)cc3)o2)cs1` [Example 4], the IC50 (in general, the point on the concentration scale where inhibition reaches its midpoint) turned out to be 200 nM.
Turning to `O=C(O)Cc1nc(-c2ccc(-c3ccc(NC(=O)/C=C/c4ccc(Cl)cc4Cl)cc3Cl)o2)cs1` [Example 6, 2-[4-[5-[2-Chloro-4-[3-(2,4-dichloro)phenylacryloylamino]phenyl]furan-2-yl]1,3-thiazol-2-yl]acetic acid], the IC50 turned out to be 500 nM.
Same read-out and setting: the result for `O=C(O)Cc1nc(-c2ccc(-c3ccc(NC(=O)/C=C/c4ccc(Br)cc4)cc3Cl)o2)cs1` [Example 5, 2-[4-[5-[2-Chloro-4-[3-(4-bromo)phenylacryloylamino]phenyl]furan-2-yl]-1,3-thiazol-2-yl]acetic acid] reads 1000 nM.
The same measure, in the same setting: the result for `O=C(O)Cc1nc(-c2ccc(-c3ccc(NC(=O)C=Cc4ccccc4)cc3Cl)o2)cs1` [Example 8, 2-[4-[5-[2-Chloro-4-(3-phenylacryloylamino)phenyl]furan-2-yl]-1,3-thiazol-2-yl]acetic acid] reads 15000 nM; that for `O=C(O)Cc1nc(-c2ccc(-c3ccc(NC(=O)c4ccc(OC(F)(F)F)cc4)cc3Cl)o2)cs1` [Example 22, 2-[4-[5-[2-Chloro-4-[(4-trifluoromethoxyphenylcarbonyl)amino]phenyl]furan-2-yl]-1,3-thiazol-2-yl]acetic acid], 500 nM; that for `O=C(O)Cc1nc(-c2ccc(-c3ccc(NC(=O)c4cc5ccccc5s4)cc3Cl)o2)cs1` [Example 11, 2-[4-[5-[2-Chloro-4-[(benzothiophene-2-carbonyl)amino]phenyl]furan-2-yl]-1,3-thiazol-2-yl]acetic acid], 20000 nM.
As for `O=C(O)Cc1nc(-c2ccc(-c3ccc(NC(=O)c4ccc(Cl)c(Cl)c4)cc3Cl)o2)cs1` [Example 18, 2-[4-[5-[2-Chloro-4-[(3,4-dichlorophenylcarbonyl)amino]phenyl]furan-2-yl]-1,3-thiazol-2-yl]acetic acid], the midpoint of inhibition, the IC50, lay at 10000 nM.

Another assay has as its target T1, human heparanase (Homo sapiens, UniProt Q9Y251).
T1 sequence (Q9Y251 158-543 limits assumed): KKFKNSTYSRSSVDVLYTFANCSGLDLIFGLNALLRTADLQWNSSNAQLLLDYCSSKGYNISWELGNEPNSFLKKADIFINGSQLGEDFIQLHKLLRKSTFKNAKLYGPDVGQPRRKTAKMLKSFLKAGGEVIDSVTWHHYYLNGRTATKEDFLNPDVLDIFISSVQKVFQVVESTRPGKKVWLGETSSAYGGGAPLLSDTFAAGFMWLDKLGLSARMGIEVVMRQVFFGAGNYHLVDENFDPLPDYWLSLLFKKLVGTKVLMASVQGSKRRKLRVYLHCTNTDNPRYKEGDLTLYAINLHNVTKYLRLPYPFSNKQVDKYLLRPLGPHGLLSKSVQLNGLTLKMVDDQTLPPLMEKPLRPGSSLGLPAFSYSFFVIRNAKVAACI
T1 sequence (Q9Y251 36-109 limits assumed): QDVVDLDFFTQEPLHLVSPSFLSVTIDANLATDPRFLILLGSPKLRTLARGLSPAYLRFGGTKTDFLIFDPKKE
Description: Heparanase assay (bFGF binding to heparan sulphate, 96-well plate). Format: biochemical. As to conditions: 2 h at 37° C., pH 5.5, read-out: Inhibition of Heparanase (IC50). On the procedure:
Heparanase assay: The assay is based upon the use of the specific binding of basic fibroblast growth factor (bFGF) to heparan sulphate. Heparan sulphate can be detected via binding of bFGF using a horse radish peroxidase-conjugated bFGF antibody.
Nunc Maxisorp 96-well plates are coated for 16 h at RT with 100 μl/well 0.04 mg/ml heparan sulphate in PBS. The wells are then aspirated and blocked for 1 h with 200 μl/well 1% BSA-PBS. Following five washes with 0.01% BSA, 0.05% Tween20 PBS (wash buffer), 100 μl of recombinant human basic FGF (90 ng/ml in 0.1% BSA/PBS) is added per well and the plate is incubated at room temperature for 1 h.
After a further five washes with the wash buffer, 10 μl of test compound (in 10% DMSO) and 90 μl of human heparanase in 100 mM Sodium acetate, 5 mM CaCl2, pH 5.5 are added to each well and the plate incubated for 2 h at 37° C. The wells are washed again with wash buffer and 100 μl of bFGF antibody-horse radish peroxidase conjugate added. The plate is incubated at room temperature for 1 h and washed again five times with wash buffer. 100 μl of TMB peroxidase substrate is added and the colour allowed to develop for 10 min. The reaction is stopped with 50 μl 1M H2SO4 and the colour read at 450 nm on a plate reader.
As to “2-[4-[5-[2-Chloro-4-[3-(3,5-bistrifluoromethyl)phenylacryloylamino]phenyl]furan-2-yl]-1,3-thiazol-2-yl]acetic acid [Example 7]”, the IC50 was 400 nM.
Still for that read-out and setting: with `COc1cccc(C(=O)Nc2ccc(-c3ccc(-c4csc(CC(=O)O)n4)o3)c(Cl)c2)c1` [Example 21, 2-[4-[5-[2-Chloro-4-[(3-methoxyphenylcarbonyl)amino]phenyl]furan-2-yl]-1,3-thiazol-2-yl]acetic acid] the figure was 7000 nM; with `O=C(O)Cc1nc(-c2ccc(-c3ccc(NC(=O)c4cc5ccccc5s4)cc3Cl)o2)cs1` [Example 11, 2-[4-[5-[2-Chloro-4-[(benzothiophene-2-carbonyl)amino]phenyl]furan-2-yl]-1,3-thiazol-2-yl]acetic acid], 400 nM.
